Measurements: US12065434B2, “Metabolites of GLP1R agonists” (Pfizer Inc., priority 2020, dated 2024)

Key:
[1] = Metabolite profiling of pooled human plasma after repeat oral dosing of Compound 1 (HPLC/UV/MS)
Experimental: Plasma samples from nine human subjects following oral administration of 120 mg BID for 28 days in a clinical study were examined for metabolites.
Individual subject's plasma (from nine human subjects with 120 mg BID dose Day 28) were pooled in proportion to the time period represented by each to yield a pool for profiling that was representative of the AUC (0-12 hr) according to the method of Hamilton et al. [Hamilton R A, Garnett W R, Kline B J. Determination of a mean valproic acid serum level by assay of a single pooled sample. […] Pooled plasma time points were first prepared by aliquoting equal amounts (1.0 mL) of plasma from each subject prior to making a single Hamilton pool. Blank plasma pools were made by taking equal aliquots of predose samples. To a 2 mL aliquot of each pooled plasma sample was added 6 mL of acetonitrile and then mixed. Protein precipitated samples were centrifuged for 5 minutes at 2000×g and the supernatants were transferred to other clean 15 mL centrifuge tubes. Samples were dried using an evaporative centrifuge set to 37° C. Samples were reconstituted using 0.2 mL of 5:95 acetonitrile:water and analyzed by HPLC/UV/MS.
Reconstituted samples were analyzed by positive ion HPLC/UV/MS using a Thermo Orbitrap Elite mass spectrometer operating in positive ion electrospray mode. Xcalibur software version 3.0.63 was used to control the HPLC/UV/MS system. Full scan data were collected at 15,000 resolution. Data dependent product ion scans of the two most intense ions found in the full scan were obtained at 15,000 resolution. The dynamic exclusion function was used with a 10 second exclusion duration after 3 successive product ion scans with an early exclusion if the precursor ion fell below a signal to noise ratio of 20. The HPLC system consisted of an Accela quaternary solvent delivery pump, an Accela autoinjector, an Accela PDA Plus photodiode array detector (Thermo Electron Corporation). Chromatography was performed on a Phenomenex Kinetex column (2.1 mm×100 mm, 2.6 μm) at 45° C. using a HotSleeve column heater (Analytical Sales and Services). The mobile phase was composed of 0.1% formic acid in water (solvent A) and acetonitrile (solvent B). The solvent delivery gradient program was as follows:

human GLP-1R [2] = molecular target: human GLP-1R (Homo sapiens, UniProt P43220, G168S); assay: CHO GLP-1R Clone H6 - Assay 1 (HTRF cAMP agonist assay); details: read-out: Assay 1 Emax (%)
Experimental: (§1) GLP-1R-mediated agonist activity was determined with a cell-based functional assay utilizing an HTRF (Homogeneous Time-Resolved Fluorescence) cAMP detection kit (cAMP HI Range Assay Kit; CisBio cat #62AM6PEJ) that measures cAMP levels in the cell. The method is a competitive immunoassay between native cAMP produced by the cells and exogenous cAMP labeled with the dye d2. The tracer binding is visualized by a mAb anti-cAMP labeled with Cryptate. The specific signal (i.e. energy transfer) is inversely proportional to the concentration of cAMP in either standard or experimental sample.
(§2) The human GLP-1R coding sequence (NCBI Reference Sequence NP_002053.3, including naturally-occurring variant Gly168Ser) was subcloned into pcDNA3 (Invitrogen) and a cell line stably expressing the receptor was isolated (designated Clone H6).
(§3) Cells were removed from cryopreservation, re-suspended in 40 mL of Dulbecco's Phosphate Buffered Saline (DPBS—Lonza Cat #17-512Q) and centrifuged at 800×g for 5 minutes at 22° C. The cell pellet was then re-suspended in 10 mL of growth medium [DMEM/F12 1:1 Mixture with HEPES, L-Gln, 500 mL (DMEM/F12 Lonza Cat #12-719F), 10% heat inactivated fetal bovine serum (Gibco Cat #16140-071), 5 mL of 100× Pen-Strep (Gibco Cat #15140-122), 5 mL of 100× L-Glutamine (Gibco Cat #25030-081) and 500 μg/mL Geneticin (G418) (Invitrogen #10131035)]. A 1 mL sample of the cell suspension in growth media was counted on a Becton Dickinson ViCell to determine cell viability and cell count per mL. The remaining cell suspension was then adjusted with growth media to deliver 2000 viable cells per well using a Matrix Combi Multidrop reagent dispenser, and the cells were dispensed into a white 384 well tissue culture treated assay plate (Corning 3570). The assay plate was then incubated for 48 hours at 37° C. in a humidified environment in 5% carbon dioxide.
(§4) Varying concentrations of each compound to be tested (in DMSO) were diluted in assay buffer (HBSS with Calcium/Magnesium (Lonza/BioWhittaker cat #10-527F)/0.1% BSA (Sigma Aldrich cat #A7409-1L)/20 mM HEPES (Lonza/BioWhittaker cat #17-737E) containing 100 μM 3-isobutyl-1-methylxanthin (IBMX; Sigma cat #15879). The final DMSO concentration is 1%.
(§5) After 48 hours, the growth media was removed from the assay plate wells, and the cells were treated with 20 μL of the serially diluted compound in assay buffer for 30 minutes at 37° C. in a humidified environment in 5% carbon dioxide. Following the 30 minute incubation, 10 μL of labeled d2 cAMP and 10 μL of anti-cAMP antibody (both diluted 1:20 in cell lysis buffer; as described in the manufacturer's assay protocol) were added to each well of the assay plate. The plates were then incubated at room temperature and after 60 minutes, changes in the HTRF signal were read with an Envision 2104 multi-label plate reader using excitation of 330 nm and emissions of 615 and 665 nm. Raw data were converted to nM cAMP by interpolation from a cAMP standard curve (as described in the manufacturer's assay protocol) and the percent effect was determined relative to a saturating concentration of the full agonist GLP-17-36 (1 μM) included on each plate. EC50 determinations were made from agonist dose-response curves analyzed with a curve fitting program using a 4-parameter logistic dose response equation.

human GLP-1R [3] = molecular target: human GLP-1R (Homo sapiens, UniProt P43220); assay: as above
Experimental: as §1, §2, §3, §4, §5

human GLP-1R [4] = molecular target: T1, human GLP-1R (Homo sapiens, UniProt P43220, L260F); assay: CHO GLP-1R Clone C6 - Assay 2 (HTRF cAMP agonist assay, low receptor density); assay type: cell-based; details: CHO GLP-1R Clone C6 (low receptor density)
T1 construct: expressed in transfected cells
T1 sequence (P43220 24-463 L260F): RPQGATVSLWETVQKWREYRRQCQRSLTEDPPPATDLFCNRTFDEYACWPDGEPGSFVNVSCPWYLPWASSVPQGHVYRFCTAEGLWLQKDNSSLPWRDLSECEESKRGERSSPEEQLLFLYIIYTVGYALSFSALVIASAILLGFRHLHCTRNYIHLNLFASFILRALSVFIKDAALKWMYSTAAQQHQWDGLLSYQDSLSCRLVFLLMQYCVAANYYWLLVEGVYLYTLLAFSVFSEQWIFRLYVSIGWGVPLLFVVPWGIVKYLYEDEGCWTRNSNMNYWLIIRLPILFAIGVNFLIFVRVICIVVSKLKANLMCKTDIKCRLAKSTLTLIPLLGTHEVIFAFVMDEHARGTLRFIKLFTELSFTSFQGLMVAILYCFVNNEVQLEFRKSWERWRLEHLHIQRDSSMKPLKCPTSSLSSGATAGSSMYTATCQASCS
Experimental: GLP-1R-mediated agonist activity was determined with a cell-based functional assay utilizing an HTRF (Homogeneous Time-Resolved Fluorescence) cAMP detection kit (cAMP HI Range Assay Kit; Cis Bio cat #62AM6PEJ) that measures cAMP levels in the cell. The method is a competitive immunoassay between native cAMP produced by the cells and exogenous cAMP labeled with the dye d2. The tracer binding is visualized by a mAb anti-cAMP labeled with Cryptate. The specific signal (i.e. energy transfer) is inversely proportional to the concentration of cAMP in either a standard or an experimental sample.
The human GLP-1R coding sequence (NCBI Reference Sequence NP_002053.3, including naturally-occurring variant Leu260Phe) was subcloned into pcDNA5-FRT-TO and a clonal CHO cell line stably expressing a low receptor density was isolated using the Flp-In™ T-Rex™ System, as described by the manufacturer (ThermoFisher).
Cells were removed from cryopreservation, re-suspended in 40 mL of Dulbecco's Phosphate Buffered Saline (DPBS—Lonza Cat #17-512Q) and centrifuged at 800×g for 5 minutes at 22° C. The DPBS was aspirated, and the cell pellet was re-suspended in 10 mL of complete growth medium (DMEM:F12 1:1 Mixture with HEPES, L-Gln, 500 mL (DMEM/F12 Lonza Cat #12-719F), 10% heat inactivated fetal bovine serum (Gibco Cat #16140-071), 5 mL of 100× Pen-Strep (Gibco Cat #15140-122), 5 mL of 100× L-Glutamine (Gibco Cat #25030-081), 700 μg/mL Hygromycin (Invitrogen Cat #10687010) and 15 μg/mL Blasticidin (Gibco Cat #R21001). A 1 mL sample of the cell suspension in growth media was counted on a Becton Dickinson ViCell to determine cell viability and cell count per mL. The remaining cell suspension was then adjusted with growth media to deliver 1600 viable cells per well using a Matrix Combi Multidrop reagent dispenser, and the cells were dispensed into a white 384 well tissue culture treated assay plate (Corning 3570). The assay plate was then incubated for 48 hours at 37° C. in a humidified environment (95% O2, 5% CO2)
Varying concentrations of each compound to be tested (in DMSO) were diluted in assay buffer [HBSS with Calcium/Magnesium (Lonza/BioWhittaker cat #10-527F)/0.1% BSA (Sigma Aldrich cat #A7409-1L)/20 mM HEPES (Lonza/BioWhittaker cat #17-737E)] containing 100 μM 3-isobutyl-1-methylxanthin (IBMX; Sigma cat #15879). The final DMSO concentration in the compound/assay buffer mixture is 1%.
After 48 hours, the growth media was removed from the assay plate wells, and the cells were treated with 20 μL of the serially diluted compound in assay buffer for 30 minutes at 37° C. in a humidified environment (95% O2, 5% CO2). Following the 30 minute incubation, 10 μL of labeled d2 cAMP and 10 μL of anti-cAMP antibody (both diluted 1:20 in cell lysis buffer; as described in the manufacturer's assay protocol) were added to each well of the assay plate. The plates were then incubated at room temperature and after 60 minutes, changes in the HTRF signal were read with an Envision 2104 multi-label plate reader using excitation of 330 nm and emissions of 615 and 665 nm. Raw data were converted to nM cAMP by interpolation from a cAMP standard curve (as described in the manufacturer's assay protocol) and the percent effect was determined relative to a saturating concentration of the full agonist GLP-1 (1 μM) included on each plate. EC50 determinations were made from agonist dose response curves analyzed with a curve fitting program using a 4-parameter logistic dose response equation.

human GLP-1R (Homo sapiens, UniProt P43220, G168S), sequence (P43220 24-463 G168S): as the sequence (P43220 24-463 L260F) above, with G145S, F237L counted along it
human GLP-1R (Homo sapiens, UniProt P43220), sequence (P43220 24-463 G168S): as the sequence (P43220 24-463 L260F) above, with G145S, F237L counted along it

In the case of `O=C(O)c1ccc2nc(CN3CCC(c4cccc(=O)[nH]4)CC3)n(C[C@@H]3CCO3)c2c1` [Compound M2, (S)-2-((4-(6-hydroxypyridin-2-yl)piperidin-1-yl)methyl)-1-(oxetan-2-ylmethyl)-1H-benzo[d]imidazole-6-carboxylic acid], the “observed as major or minor metabolite in human plasma” value ([1]; Compound 1 120 mg BID, Day 28) is reported as “major circulating metabolite”, the “Plasma Extracts” value ([1]; Compound 1 120 mg oral BID, Day 28, HPLC/UV/MS) is reported as “+++” and the Emax (human GLP-1R [2]) is reported as 2%. It also gave an EC50 (human GLP-1R [3]) greater than 20 µM, an Emax (human GLP-1R [4]; arithmetic mean, relative to 1 μM GLP-1) of 0% and an EC50 (human GLP-1R [4]; geometric mean) greater than 20 µM.
